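Method: 48-hour compound exposure of cells in 96-well plates, five concentrations, linear interpolation of endpoints. GI50: concentration for 50% inhibition of growth.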 The source made the active and inactive calls. No stated cut-off is given here; in the data, active = GI50 up to about 1.1 µM and inactive = higher.
Columns and labels:
Assay in all cases: NCI tumour cell line growth inhibition, 48 h
[1] = system: 786-0
[2] = system: A549
[3] = system: ACHN
[4] = system: BT-549
[5] = system: CCRF-CEM
[6] = system: Hs-578T
[7] = system: IGROV-1
[8] = system: K562
[9] = system: KM12
[10] = system: NCI-H226
[11] = system: NCI-H460
[12] = system: OVCAR-5
[13] = system: SF-268
[14] = system: SF-295
[15] = system: SK-MEL-5
[16] = system: SR
[17] = system: T47D
[18] = system: U-251
[19] = system: UO-31
[20] = system: SK-OV-3

Compound | GI50 [1] | GI50 [2] | GI50 [3] | GI50 [4] | GI50 [5] | GI50 [6] | GI50 [7] | GI50 [8] | GI50 [9] | GI50 [10] | GI50 [11] | GI50 [12] | GI50 [13] | GI50 [14] | GI50 [15] | GI50 [16] | GI50 [17] | GI50 [18] | GI50 [19] | GI50 [20]
c1ccc2sc(SCSc3nc4ccccc4s3)nc2c1 | 82.4 µM (inactive) | 81.3 µM (inactive) | 74.8 µM (inactive) | > 100 µM (inactive) | 47.4 µM (inactive) | > 100 µM (inactive) | > 100 µM (inactive) | 31.1 µM (inactive) | > 100 µM (inactive) | > 100 µM (inactive) | 22.4 µM (inactive) | > 100 µM (inactive) | > 100 µM (inactive) | 43.3 µM (inactive) | 30.1 µM (inactive) | 7.08 µM (inactive) | > 100 µM (inactive) | 39.3 µM (inactive) | 86.1 µM (inactive) | 
O=C(CCSC(CC(=O)c1ccc(Cl)cc1)c1ccc(Cl)cc1)Nc1ccc(Cl)cc1 (configuration not stated) | 13.8 µM (inactive) | 14.6 µM (inactive) | 14.4 µM (inactive) | 13.5 µM (inactive) | 2.09 µM (inactive) | 26.3 µM (inactive) | 14.9 µM (inactive) | 4.06 µM (inactive) | 3.21 µM (inactive) | 20.3 µM (inactive) | 10.2 µM (inactive) | 16.4 µM (inactive) | 15.2 µM (inactive) | 9.44 µM (inactive) | 15.9 µM (inactive) | 2.91 µM (inactive) | 6.03 µM (inactive) | 9.06 µM (inactive) | 14 µM (inactive) | 20.7 µM (inactive)
COc1cc(OCc2ccc3nc(-c4ccccc4)c(N)nc3c2)cc(OC)c1OC | 30.8 µM (inactive) | 20.6 µM (inactive) | 20.8 µM (inactive) | 16.1 µM (inactive) | 16.7 µM (inactive) | 21.2 µM (inactive) | 22.2 µM (inactive) | 15.5 µM (inactive) | 18.6 µM (inactive) | 21.3 µM (inactive) | 18.7 µM (inactive) | 17.6 µM (inactive) | 34.8 µM (inactive) | 26 µM (inactive) | 11.3 µM (inactive) | 17.9 µM (inactive) | 14.4 µM (inactive) | 32.5 µM (inactive) | 10.7 µM (inactive) | 
CN(CCN)[C@H](CSSC[C@@H](c1ccccc1O)N(C)CCN)c1ccccc1O | 7.57 µM (inactive) | 7.24 µM (inactive) | 10.1 µM (inactive) | 9.95 µM (inactive) | 1.44 µM (inactive) | 20.4 µM (inactive) |  | 7.18 µM (inactive) | 11.1 µM (inactive) | 11.7 µM (inactive) | 4.98 µM (inactive) | 13.9 µM (inactive) | 12.4 µM (inactive) | 6.85 µM (inactive) | 12 µM (inactive) | 2.87 µM (inactive) | 26.1 µM (inactive) | 15.9 µM (inactive) | 10.1 µM (inactive) | 11.7 µM (inactive)
CN(C)c1ccc(/N=N\c2cccc3ncccc23)cc1 | > 80.4 µM (inactive) | 63.7 µM (inactive) | 35.6 µM (inactive) | 65.5 µM (inactive) | 51.3 µM (inactive) | 44.7 µM (inactive) | < 0.0159 µM (active) | 35.4 µM (inactive) | 33.6 µM (inactive) | > 72.3 µM (inactive) | 26.6 µM (inactive) |  | > 94 µM (inactive) | > 78 µM (inactive) | 20.4 µM (inactive) | 55 µM (inactive) | 1.89 µM (inactive) | > 74.1 µM (inactive) | 8.53 µM (inactive) | > 100 µM (inactive)
S=C1Cc2c(-c3ccccc3)cc(-c3ccc(Cl)cc3)nc2-c2ccccc2N1 | 1.08 µM (active) | 3.17 µM (inactive) | 1.04 µM (active) | 5.56 µM (inactive) | 3.08 µM (inactive) | 1.32 µM (inactive) | 0.971 µM (active) |  | 8.75 µM (inactive) | 2.9 µM (inactive) | 3.27 µM (inactive) | 7.45 µM (inactive) | 1.89 µM (inactive) | 3.39 µM (inactive) | 3.47 µM (inactive) | > 68.7 µM (inactive) | 4.32 µM (inactive) | 0.746 µM (active) | 1.96 µM (inactive) | 2.38 µM (inactive)
CC1=NN(C(=O)CC(=O)Nc2cccc(Cl)c2)C(=O)C1/N=N/c1ccc(C(=O)O)cc1 (configuration not stated) | > 100 µM (inactive) | > 100 µM (inactive) | > 100 µM (inactive) | > 100 µM (inactive) | 48.4 µM (inactive) | > 100 µM (inactive) | > 100 µM (inactive) | > 100 µM (inactive) | > 100 µM (inactive) |  | > 100 µM (inactive) | > 100 µM (inactive) | > 100 µM (inactive) | > 100 µM (inactive) | > 100 µM (inactive) | 48.9 µM (inactive) | 37.2 µM (inactive) | > 100 µM (inactive) | 65.2 µM (inactive) | 
COC1(OC)c2occc2C(=N)c2ccc(=O)oc21 | > 100 µM (inactive) | > 100 µM (inactive) | 92.3 µM (inactive) | > 100 µM (inactive) | 85.9 µM (inactive) | > 100 µM (inactive) | > 100 µM (inactive) | > 100 µM (inactive) |  | > 100 µM (inactive) | > 100 µM (inactive) | > 100 µM (inactive) | > 100 µM (inactive) | > 100 µM (inactive) | 22.4 µM (inactive) | 71.8 µM (inactive) | > 100 µM (inactive) | > 100 µM (inactive) | > 100 µM (inactive) | > 100 µM (inactive)
Cc1ccc(S(=O)(=O)N2CCN(CCO)CCN(S(=O)(=O)c3ccc(C)cc3)CCN(CCO)CC2)cc1 | 23.6 µM (inactive) | 20.7 µM (inactive) | 31 µM (inactive) | 60.8 µM (inactive) | 22.9 µM (inactive) | 30.1 µM (inactive) | 21.5 µM (inactive) | 17.1 µM (inactive) | 20.6 µM (inactive) | 20.9 µM (inactive) | 14.3 µM (inactive) | 44.1 µM (inactive) | 26.1 µM (inactive) | 31.7 µM (inactive) | 13.6 µM (inactive) | 12.3 µM (inactive) | 17.5 µM (inactive) | 25.4 µM (inactive) | 22.6 µM (inactive) | 
N#CCC(=O)N/N=C\C(O)C(O)C(O)C(O)CO (configuration not stated) | > 100 µM (inactive) | > 100 µM (inactive) | > 100 µM (inactive) | > 100 µM (inactive) | > 100 µM (inactive) | > 100 µM (inactive) | > 100 µM (inactive) | > 100 µM (inactive) | > 100 µM (inactive) | > 100 µM (inactive) | > 100 µM (inactive) | > 100 µM (inactive) | > 100 µM (inactive) | > 100 µM (inactive) | > 100 µM (inactive) | > 100 µM (inactive) | > 100 µM (inactive) |  | > 100 µM (inactive) | > 100 µM (inactive)
Cc1cccc(/C=N/NC(=S)Nc2ccccc2)n1 | 2.27 µM (inactive) | 5.61 µM (inactive) | 2.6 µM (inactive) | 7.53 µM (inactive) |  | 20.1 µM (inactive) | 2.84 µM (inactive) | 4.1 µM (inactive) | 4.72 µM (inactive) | 6.37 µM (inactive) | 1.57 µM (inactive) | 5.85 µM (inactive) | 3.31 µM (inactive) | 6.3 µM (inactive) | 3.08 µM (inactive) | 16.6 µM (inactive) | 2.84 µM (inactive) | 4.32 µM (inactive) | 3.43 µM (inactive) | 9.53 µM (inactive)
Cc1ccc(-c2c3c(n(C4OC(CO)C(O)C(O)C4O)c(=S)c2C#N)CC(C)(C)CC3=O)cc1 (configuration not stated) | 47.4 µM (inactive) | > 100 µM (inactive) | 65.5 µM (inactive) | 50 µM (inactive) | 68.2 µM (inactive) | 70.6 µM (inactive) | > 100 µM (inactive) | 45.2 µM (inactive) | > 100 µM (inactive) | 48.6 µM (inactive) | 52.2 µM (inactive) | > 100 µM (inactive) | > 100 µM (inactive) | > 100 µM (inactive) | 34.6 µM (inactive) | 37 µM (inactive) | 34.4 µM (inactive) | 52.4 µM (inactive) | 60 µM (inactive) | 
O=C(O)CCCC(=O)Nn1c(Cc2ccc(Cl)cc2)n[nH]c1=O | > 100 µM (inactive) | > 100 µM (inactive) | > 100 µM (inactive) | > 100 µM (inactive) | > 100 µM (inactive) | > 100 µM (inactive) | > 100 µM (inactive) | > 100 µM (inactive) | > 100 µM (inactive) | > 100 µM (inactive) |  | > 100 µM (inactive) | > 100 µM (inactive) | > 100 µM (inactive) | > 100 µM (inactive) | > 100 µM (inactive) | > 100 µM (inactive) | > 100 µM (inactive) | 14.9 µM (inactive) | > 100 µM (inactive)
Cn1c([C@H](C#N)C(=O)c2cc(O)ccc2[N+](=O)[O-])nc2ccccc21 | > 100 µM (inactive) | > 100 µM (inactive) | > 100 µM (inactive) | 16 µM (inactive) | 10.6 µM (inactive) | > 100 µM (inactive) | > 100 µM (inactive) |  | > 100 µM (inactive) |  | > 100 µM (inactive) | > 100 µM (inactive) | > 100 µM (inactive) | > 100 µM (inactive) | > 100 µM (inactive) | 5.98 µM (inactive) | > 100 µM (inactive) | > 100 µM (inactive) | > 100 µM (inactive) | 
O=c1ccn([C@@H]2C[C@@H]2CO)c(=O)[nH]1 | > 100 µM (inactive) | > 100 µM (inactive) | > 100 µM (inactive) | > 100 µM (inactive) | > 100 µM (inactive) | > 100 µM (inactive) | > 100 µM (inactive) | > 100 µM (inactive) | > 100 µM (inactive) | > 100 µM (inactive) | > 100 µM (inactive) | > 100 µM (inactive) | > 100 µM (inactive) |  | > 100 µM (inactive) | > 100 µM (inactive) | > 100 µM (inactive) | > 100 µM (inactive) | > 100 µM (inactive) | 
